These results are taken from PubChem BioAssay AID2305 (GlaxoSmithKline (GSK), 2010).

The IC50 is the point on the concentration scale where inhibition reaches its midpoint.

The assay concerns P. falciparum 3D7 growth, pLDH absorbance. The assay is described as follows: P. falciparum 3D7 growth inhibition, dose response, strain 3D7 (AID 2305).

As for `Cc1cnc(C(=O)Nc2cccc(-c3csc(-c4nc5ccccc5[nH]4)c3)c2)cn1`, the IC50 turned out to be 270 nM.

Take `CCC(C)NC(=O)CN1CN(c2ccccc2)C2(CCN(C(=O)c3ccc(-c4ccccc4)cc3)CC2)C1=O` (configuration not stated): the 50% inhibitory concentration (IC50) worked out at 130 nM.

In turn, `Cc1ccc2nc(-c3ccc(C(=O)NC4CCN(Cc5ccccc5)CC4)s3)[nH]c2c1` showed a half-inhibitory concentration (IC50) of 1010 nM.

On to `Cc1ccc(Nc2nc3cc(N(C)c4ccnc(Nc5cccc(CCS(C)(=O)=O)c5)n4)ccc3n2C)cc1`, for which the half-inhibitory concentration (IC50) amounted to 340 nM.

`CC(CN1CCN(C)CC1)C(=O)Nc1ccc(-c2cccc(-c3nc4ccc(F)cc4[nH]3)c2)cc1` (configuration not stated) came in with an IC50 of 520 nM.

Turning to `O=C(Nc1ccc(Cl)c(Cl)c1)Nc1ccc2nccc(N3CCNCC3)c2c1`, the half-maximal inhibitory concentration (IC50) worked out at 260 nM.

`O=C1CCCN1CCCNCc1ccc(-c2ccc(-c3nc4ccc(C(F)(F)F)cc4[nH]3)cc2)cc1`: the IC50 turned out to be 580 nM.

In turn, `CC(C)CCN1CCC(Oc2ccc(NC(=O)c3ccc(F)cc3)cc2Cl)CC1` registered a 50% inhibitory concentration (IC50) of 720 nM.

`Cc1ccc2nc(C)cc(NN=Cc3ccccc3Cl)c2c1` registered a 50% inhibitory concentration (IC50) of 750 nM.

As to `COc1cc(C)nc2ccc(NC(=O)Nc3ccccc3[N+](=O)[O-])cc12`, the half-maximal inhibitory concentration (IC50) amounted to 840 nM.

In turn, `Cc1cc(NC(=O)c2coc3cc(F)c(N4C[C@@H](C)N(C)[C@@H](C)C4)cc23)cnc1-c1ccc(C#N)cc1` registered an IC50 of 700 nM.

Molecule `CCOC(=O)Cc1nc(N)c(C(=O)OCC)[nH]1` displayed an IC50 of 650 nM.

`Cc1cc(N[C@@H](CC(C)C)C(=O)NCCc2ccccc2)nc(NCc2ccccc2C)n1`: the IC50 came to 910 nM.

For `COc1cc2nc(NCCn3nc(C)cc3C)nc(NCCc3ccccc3)c2cc1OC`, the half-maximal inhibitory concentration (IC50) worked out at 440 nM.

`COCC(C)n1c(SCC(=O)Nc2cc(C(F)(F)F)ccc2Cl)nc2ccccc2c1=O` (configuration not stated) displayed a half-maximal inhibitory concentration (IC50) of 130 nM.

`O=S(=O)(Nc1ccc(CCN2CCC(N3CCCCC3)CC2)cc1)c1ccc(Cl)cc1` registered an IC50 of 1090 nM.

Consider `O=C(Nc1cccc(C(F)(F)F)c1)c1ccc(S(=O)(=O)NCC2CCCN(CC3CCCCC3)C2)cc1` (configuration not stated), for which the IC50 was 900 nM.

Regarding `CC(C)(C)c1ccc2nc(-c3ccc(C(=O)NC4CCN(Cc5ccccc5)CC4)s3)[nH]c2c1`, the IC50 stood at 360 nM.

Regarding `Cc1ccccc1C1CCN(C2CCC(NC(=O)/C=C/c3ccc(OC(F)(F)F)cc3)CC2)CC1` (configuration not stated), the IC50 was determined as 860 nM.

The molecule `COc1ccc(Nc2ccnc3cc4ccccc4cc23)cc1` had a half-inhibitory concentration (IC50) of 680 nM.

`COC(=O)c1cccc(CNCc2ccc(-c3ccc(-c4nc5ccc(C(F)(F)F)cc5[nH]4)s3)cc2)c1` displayed an IC50 of 160 nM.

Molecule `COc1ccc(NC(=O)/C=C/c2ccc(Cl)c(Cl)c2)cc1N1CCN(C)CC1` came in with an IC50 of 980 nM.

For the molecule `NOCCCOc1ccc(Cl)cc1`, the IC50 was 570 nM.

Molecule `O=S(=O)(NCCN1CCCC1)c1ccc(-c2cccc(CNC3Cc4ccccc4C3)c2)s1` yielded an IC50 of 750 nM.

As to `Cc1ccc(CN(Cc2ccc(C(=O)N(C)C)cc2)Cc2ccc3c(c2)OCCO3)cc1C`, the half-maximal inhibitory concentration (IC50) amounted to 800 nM.

Molecule `CC(=O)Nc1ccc(C2NC(=O)NC(c3ccccc3)=C2c2nc3ccccc3s2)cc1` (configuration not stated) returned an IC50 of 1110 nM.

Regarding `O=C(/C=C/c1ccc(Cl)c(Cl)c1)NCCCCCN1CC[C@H](NC(=O)c2ccc3c(c2)OCO3)C1`, the 50% inhibitory concentration (IC50) was found to be 940 nM.

For the molecule `O=C(c1cccs1)N(Cc1cccc(-c2ccc(CNC3CCCC3)cc2)c1)C1CCN(Cc2ccccc2)CC1`, the half-inhibitory concentration (IC50) was 1130 nM.

As for `CCCCCc1cc(O)c2c(c1)OC(C)(C)C=C2C1=CCN(Cc2ccsc2)CC1`, the concentration for half-maximal inhibition (IC50) is 960 nM.

The molecule `CNCCCCCCOc1ccc(CC(C)NCC(O)c2cccc(C(F)(F)F)c2)cc1` (configuration not stated) yielded a half-inhibitory concentration (IC50) of 880 nM.

In turn, `COc1cc(OCCCN(C)Cc2ccc(OC)c(OC)c2)ccc1NC(=O)c1cccc2c(=O)c3cccc(F)c3[nH]c12` registered a half-inhibitory concentration (IC50) of 890 nM.

As to `Cc1c(C)n(C2CCCC2)c2ncnc(OC3CCN(CC(=O)NC4CC4)CC3)c12`, the half-maximal inhibitory concentration (IC50) came to 790 nM.

`COc1ccc(CCn2c(=N)c(C(=O)NCc3ccccc3)cc3c(=O)n4ccccc4nc32)cc1` returned a half-inhibitory concentration (IC50) of 750 nM.

`O=C(NCCc1ccccc1F)c1ccc(N2CCN(c3ccncc3)CC2)cn1`: the IC50 was found to be 1080 nM.

Consider `O=C(/C=C/c1ccc(Cl)c(Cl)c1)NCCCCCN1CCC(C(=O)Nc2cccc(Cl)c2)CC1`, for which the half-inhibitory concentration (IC50) was determined as 680 nM.

In the case of `COc1ccc2c(=O)ccn(CCN3CCC(NCc4ccc5c(n4)NC(=O)CS5)CC3)c2c1`, the half-inhibitory concentration (IC50) is 230 nM.

Take `O=C(NC12CC3CC(CC(C3)C1)C2)C(=O)c1c[nH]c2ccccc12`: the IC50 was 230 nM.

Consider `O=C(/C=C/c1ccc(Cl)c(Cl)c1)NCCCCN1CCCN(C(=O)Nc2ccc(Cl)c(Cl)c2)CC1`, for which the IC50 was 860 nM.

`CNC(=O)c1cc(F)c(F)cc1Nc1nc(Nc2cccc(CS(C)(=O)=O)c2)ncc1Cl`: the half-maximal inhibitory concentration (IC50) stood at 1020 nM.

Molecule `Cc1cc(N2CCCC2)nc(Nc2ccc(NC(=O)Cc3ccccc3)cc2)n1` yielded a 50% inhibitory concentration (IC50) of 610 nM.

In turn, `O=C(Nc1ccncc1)Nc1ccc2c(c1)CCN(C1CCC1)CC2` yielded an IC50 of 1130 nM.

`O=C(Nc1ccc(OC2CCN(Cc3ccc(F)cc3)C2)c(Cl)c1)c1ccc(F)cc1` (configuration not stated) gave an IC50 of 490 nM.

As to `Cc1cc(NN=Cc2ccccn2)c2cc(F)ccc2n1`, the IC50 was 760 nM.

Molecule `COc1ccc(-c2cn3c(C(=O)Nc4ccccc4Cl)c(-c4ccccc4)c4c3n2CCCC4)cc1` came in with an IC50 of 790 nM.

Molecule `O=S(=O)(/C=C/c1ccccc1)N(Cc1ccc(-c2ccc(CNCCc3ccccc3)cc2)cc1)CC1CCCCN1` (configuration not stated) yielded a half-maximal inhibitory concentration (IC50) of 790 nM.

Molecule `CCOc1ccc(C(=O)Nc2cc3c(c(C(F)(F)F)c2)CCNC3)cc1Cl` showed an IC50 of 1060 nM.

In the case of `Nc1nc(N)c2c(ccc3nccc32)[nH]1`, the 50% inhibitory concentration (IC50) was 1080 nM.

`Nc1nc(N)c2cc(CNc3ccc(Cl)c(Cl)c3)ccc2n1`: the IC50 was determined as 1020 nM.

Take `CN1C(C)(C)CC(NC(=O)c2ccc(-c3nc4cc(Cl)c(Cl)cc4[nH]3)cc2)CC1(C)C`: the IC50 stood at 730 nM.

In turn, `CCN(CC)c1ccc(C=CC(=O)NCCN2CCC(N(C)C3CCCCC3C)CC2)cc1` (configuration not stated) returned an IC50 of 960 nM.

In the case of `CC[C@H]1CN(Cc2ccccc2Br)CC[C@H]1CCCc1ccnc2ccc(O)cc12`, the half-inhibitory concentration (IC50) was 1000 nM.

`CN1CCCC1CCNCc1cccc(-c2cnc(N3CCCC(C)(C)C3)nc2)c1` (configuration not stated) had a half-inhibitory concentration (IC50) of 930 nM.

For `O=C(/C=C/c1ccsc1)NC1CCC(CN2CCC(c3c[nH]c4ccccc34)CC2)CC1` (configuration not stated), the half-maximal inhibitory concentration (IC50) was determined as 1120 nM.

For the molecule `Cc1[nH]nc2ccc(-c3cc(OC[C@@H](N)Cc4ccccc4)cnc3-c3cc4ccccc4s3)cc12`, the concentration for half-maximal inhibition (IC50) was 810 nM.

On to `COc1ccc2ncc(F)c(CCN3[C@@H]4CC[C@H]3CC(NCc3ccc5c(c3)OCCO5)C4)c2n1` (some centres not stated), for which the IC50 was 230 nM.

Consider `CN1CCN(CCCN(Cc2csc(-c3ccc(CNCc4ccccc4)cc3)n2)S(=O)(=O)c2cccc3cccnc23)CC1`, for which the IC50 is 1410 nM.

`CC(Cc1ccc(OCc2ccc(CCN(C)C)cc2)cc1)NCCc1cccc(Cl)c1` (configuration not stated): the half-maximal inhibitory concentration (IC50) stood at 770 nM.

Turning to `COCCNCc1cccc(-c2ccc(CN(C(=O)NC3CCCCC3)C3CCN(Cc4ccccc4)CC3)cc2)c1`, the IC50 came out at 760 nM.

In turn, `C=CCOC(=O)N1CCC(CNCc2cccc(-c3cccc(-c4nc5ccccc5[nH]4)c3)c2)C1` (configuration not stated) yielded an IC50 of 340 nM.

As for `COc1cc(Cc2cnc(N)nc2N)cc(OCc2cccc(C(=O)O)c2)c1OC`, the half-inhibitory concentration (IC50) was 830 nM.

Turning to `CN1CCC(c2csc3ccc(NC(=O)Nc4ccc(-c5ccncc5)c5ccccc45)cc23)CC1`, the IC50 was determined as 1020 nM.

For the molecule `CC(C)c1cc2c(cc1O)C(Cc1ccccc1Cl)N(C)CC2` (configuration not stated), the IC50 amounted to 730 nM.

As for `COc1nc(Nc2cccc(C)c2)nc(OC)n1`, the IC50 turned out to be 1010 nM.

`CCOC(=O)c1ccc(-n2c(C)cc(C=C3SC(=Nc4ccccc4)N(C4CCCC4)C3=O)c2C)cc1` gave an IC50 of 1170 nM.

In turn, `Cc1cc2[nH]c(-c3ccc(C(=O)NCCCN4CCN(c5cccc(Cl)c5)CC4)cc3F)nc2cc1Cl` showed an IC50 of 480 nM.

Molecule `Cc1ccc2[nH]c(-c3ccc(C(=O)NCc4ccc(Cl)c(Cl)c4)cc3)nc2c1C` registered an IC50 of 790 nM.

For `N#CCCN1CCN(Cc2ccc(-c3cccc(-c4nc5ccc(F)cc5[nH]4)c3)cc2)CC1`, the concentration for half-maximal inhibition (IC50) is 970 nM.

For the molecule `O=[N+]([O-])c1cccc(CNC2CCN(Cc3ccc(-c4ccccc4)cc3)CC2)c1`, the IC50 is 230 nM.

On to `CCN(CC)CCOc1c(Cl)cc(Cl)cc1CNCCCNc1cc(=O)c2ccccc2[nH]1`, for which the IC50 was 870 nM.

`COC(=O)c1c(C#N)c(OC)cc(O)c1CSC[C@@H](CN1CCCCC1)Nc1nc(-c2ccc([N+](=O)[O-])cc2)cs1` showed an IC50 of 1270 nM.

Take `Cc1ccc(-n2c(Sc3ncnc4sccc34)nnc2N2CCCC2)cc1`: the IC50 was 260 nM.

Regarding `O=C(Nc1ccc(Cl)cc1)c1ccc(CN2CCCN(Cc3cccc(Cl)c3)CC2)cc1`, the IC50 turned out to be 830 nM.

In the case of `CN(C)C1CCN(CC#Cc2cc3ncnc(Nc4ccc(OCc5cccc(F)c5)c(Cl)c4)c3s2)CC1`, the IC50 worked out at 890 nM.

For `CN1CC=C(c2c[nH]c3ccc(OCc4ccccc4)cc23)CC1`, the IC50 was 720 nM.

Consider `Cc1cc(NCCC(=O)Nc2ccccc2)nc(NCCOc2ccccc2)n1`, for which the IC50 stood at 1140 nM.

As to `CCCCOC(=O)C1=C(C)NC2=C(C(=O)CCC2)C1c1ccc(OC)c(Br)c1` (configuration not stated), the IC50 was 600 nM.

Take `O=C(NCc1cccc(F)c1)Nc1ccc(-c2cccc(-c3nc4ccc(F)cc4[nH]3)c2)cc1`: the half-maximal inhibitory concentration (IC50) stood at 770 nM.

On to `Cn1c2c(c3ccccc31)CN(CCC1(c3ccc(Cl)c(Cl)c3)CN(C(=O)Cc3ccccc3)CCO1)CC2` (configuration not stated), for which the half-inhibitory concentration (IC50) came out at 360 nM.

In the case of `CC(C)C[C@H](NC(=O)c1cc2ccccc2s1)C(=O)N[C@H]1CCN(Cc2ccc(OC[C@@H]3CCCN3C)c(Cl)c2)C1`, the 50% inhibitory concentration (IC50) was 850 nM.

Take `O=C(/C=C/c1ccc(Cl)cc1)NCCCCCN1CCCN(C(=O)Nc2ccc(F)c(Cl)c2)CC1`: the IC50 came to 780 nM.

As for `CS(=O)(=O)c1cccc(-c2cnc(N)c3cc(-c4ccc(F)cc4)ccc23)c1`, the IC50 came to 900 nM.

For `Cc1ccc(-c2nc(N3CCN(C(=O)c4ccco4)CC3)c3ccc(Cl)cc3n2)cc1`, the 50% inhibitory concentration (IC50) was 1210 nM.

The molecule `c1cc2c3c(cccc3c1)NC(CCCCCCCCC1=Nc3cccc4cccc(c34)N1)=N2` displayed an IC50 of 830 nM.

`Cc1cccc(N2CCN(Cc3cc(Cl)ccc3O)CC2)c1C` came in with a half-inhibitory concentration (IC50) of 770 nM.

On to `Cc1cccc(C)c1CNc1nc(N2CCOCC2)cc2c(C)c(C)[nH]c12`, for which the IC50 amounted to 1240 nM.

For `CN1CCN(Cc2cccc(-c3ccc4c(Nc5ccc(Oc6ccccc6)cc5)ccnc4c3)c2)CC1`, the half-maximal inhibitory concentration (IC50) was found to be 230 nM.

`Clc1ccc2c(Cl)c(CNCCCNc3nc4ccccc4[nH]3)[nH]c2c1` displayed an IC50 of 220 nM.
